Here are results for one compound from patent US20040248804A1, “Nasal administration of the LH-RH analog Leuprolide” (priority 2003, published 2004).

For data set [1] the following is noted: human, in vivo.
Protocol: The design of the experiment was a five-way, crossover, randomized, partially double-blind, volunteer trial. Women were given leuprolide 1 mg IV and SQ, and IN as novel formulation at 1 mg (one spray), 2 mg (one spray) and 6 mg (three sprays), in random order. There was one dosing regimen on each of five separate days, with each day separated by at least two washout days. Blood for leuprolide measurement was collected via indwelling catheter at baseline and on eighteen occasions, up to twenty four hours after dosing. Plasma was separated and the leuprolide concentrations determined by enzyme linked immunosorbant assays (ELISA). Throughout the study subjects were monitored for adverse events and given nasal examinations.
Data set [2] is described as follows: Plasma leuprolide pharmacokinetics after IV, SQ and intranasal (IN) administration, five-way crossover volunteer trial, ELISA. Also on record: Absolute bioavailability, % of IV: dose or concentration left out as unconfirmed. Conditions: human, in vivo; for bioavailability / AUC / Cmax: female. The text has this:
In the following example, the inventors sought to compare the intranasal (“IN”) administration of leuprolide using the methods and compositions of the invention with prior art methods of administration (subcutaneous (“SQ”) and intravenous (“IV”)).
(ELISA stands for enzyme-linked immunosorbent assay.)

One may read the bioavailability as the share of a dose that reaches the circulation, judged against a reference dose that is usually intravenous. Broadly, the AUC is concentration integrated over time. What is called Cmax is the maximum level reached in the sampled fluid or tissue. For the compound `CC(=O)O.CCNC(=O)[C@@H]1CCCN1C(=O)[C@H](CCCNC(=N)N)NC(=O)[C@H](CC(C)C)NC(=O)[C@@H](CC(C)C)NC(=O)[C@H](Cc1ccc(O)cc1)NC(=O)[C@H](CO)NC(=O)[C@H](Cc1c[nH]c2ccccc12)NC(=O)[C@H](Cc1c[nH]cn1)NC(=O)[C@@H]1CCC(=O)N1` [leuprolide, 5-oxo-L-prolyl-L-histidyl-L-tryptophyl-L-seryl-L-tyrosyl-D-leucyl-L-leucyl-L-arginyl-N-ethyl-L-prolinamide acetate salt], in data set [1], the Adverse events noted result was “rhinorrhea and altered taste sensation”. Besides, in data set [1], the Serious adverse events entry is on record as “No serious adverse events were reported”. Moreover, the bioavailability in data set [2] came out at 95 ± 17%; in data set [2] (inhaled or intranasal, 1 mg), 13 ± 7%; in data set [2] (inhaled or intranasal, 2 mg), 14 ± 7%. The area under the curve (AUC) worked out at 15 ± 8 ng·h/mL in data set [2] (inhaled or intranasal, 1 mg); 31 ± 16 ng·h/mL in data set [2] (inhaled or intranasal, 2 mg); 56 ± 28 ng·h/mL in data set [2] (inhaled or intranasal, 6 mg); 120 ± 25 ng·h/mL in data set [2] (iv, 1 mg); 111 ± 21 ng·h/mL in data set [2] (sc, 1 mg). Moreover, the peak concentration (Cmax) stood at 5 ± 3 ng/mL in data set [2] (inhaled or intranasal, 1 mg); 11 ± 6 ng/mL in data set [2] (inhaled or intranasal, 2 mg); 22 ± 11 ng/mL in data set [2] (inhaled or intranasal, 6 mg); 85 ± 33 ng/mL in data set [2] (iv, 1 mg); 35 ± 8 ng/mL in data set [2] (sc, 1 mg). The results for the “Absolute bioavailability, % of IV” value in data set [2] and in data set [2] (iv) were 8 ± 3 % of IV and 100 % of IV, respectively.
